Legend:
[1] = test system: Aβ40 in conditioned medium of cells stably expressing Amyloid Precursor Protein (APP); assay: In vitro BACE cell-based assay (Aβ40 in conditioned medium, sandwich ELISA); conditions: Homo sapiens, HEK293, average IC50; read-out: HEK cell assay
Procedure, shortened: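 Conditioned medium from stably APP-expressing cells treated with compound dose series is assayed for Aβ40 by sandwich ELISA with time-resolved fluorescence detection. IC50 is calculated from percent inhibition of Aβ40 against compound concentration.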

[2] = molecular target: Beta Secretase enzyme (BACE) (Homo sapiens, UniProt P56817); assay: In vitro enzymatic BACE FRET (fluorescence resonance energy transfer) assay; type: biochemical; conditions: average IC50, enzyme assay; read-out: BACE 1 FRET assay
Chain of Beta Secretase enzyme (BACE) (P56817 46-501, species assumed): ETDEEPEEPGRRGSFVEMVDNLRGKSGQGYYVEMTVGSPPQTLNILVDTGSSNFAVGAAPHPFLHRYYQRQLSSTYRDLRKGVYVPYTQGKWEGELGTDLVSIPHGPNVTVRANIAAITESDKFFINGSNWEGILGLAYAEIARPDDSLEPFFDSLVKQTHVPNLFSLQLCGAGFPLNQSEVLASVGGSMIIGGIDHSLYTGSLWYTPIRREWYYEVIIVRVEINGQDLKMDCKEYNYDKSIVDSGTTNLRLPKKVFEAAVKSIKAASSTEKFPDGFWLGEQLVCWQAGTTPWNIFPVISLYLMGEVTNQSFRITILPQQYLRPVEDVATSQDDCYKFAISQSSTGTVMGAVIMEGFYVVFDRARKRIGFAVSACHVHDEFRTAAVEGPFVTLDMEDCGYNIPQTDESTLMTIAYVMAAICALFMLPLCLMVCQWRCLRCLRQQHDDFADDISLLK
Procedure, shortened: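 A peptide bearing a fluorophore and quencher across the cleavage site serves as substrate at 50 nM. Reactions proceed one hour in acidic acetate buffer (0.05 M, pH 4.2) containing 10% DMSO final and 100 uM genapol, then are terminated with Tris and read fluorimetrically.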

SMILES	IC50 [1]	IC50 [2]
Cc1cccc(Oc2ccc3c(c2)[C@@]2(COC(N)=N2)c2cc(N4CCOCC4)cc(F)c2O3)n1 [Example 1057, (4S)-4′-fluoro-7′-((6-methyl-2-pyridinyl)oxy)-2′-(4-morpholinyl)spiro[1,3-oxazole-4,9′-xanthen]-2-amine]	687 nM	73.2 nM
Cc1ccc(Oc2ccc3c(c2)[C@@]2(COC(N)=N2)c2cc(N4CCOCC4)cc(F)c2O3)nc1 [Example 1058, (4S)-4′-fluoro-7′-((5-methyl-2-pyridinyl)oxy)-2′-(4-morpholinyl)spiro[1,3-oxazole-4,9′-xanthen]-2-amine]	604 nM	50.7 nM
Cc1ccnc(Oc2ccc3c(c2)[C@@]2(COC(N)=N2)c2cc(N4CCOCC4)cc(F)c2O3)c1 [Example 1059, (4S)-4′-fluoro-7′-((4-methyl-2-pyridinyl)oxy)-2′-(4-morpholinyl)spiro[1,3-oxazole-4,9′-xanthen]-2-amine]	609 nM	33.9 nM
NC1=N[C@@]2(CO1)c1cc(Oc3cccc(Cl)n3)ccc1Oc1c(F)cc(N3CCOCC3)cc12 [Example 1060, (4S)-7′-((6-chloro-2-pyridinyl)oxy)-4′-fluoro-2′-(4-morpholinyl)spiro[1,3-oxazole-4,9′-xanthen]-2-amine]	318 nM	33.5 nM
NC1=N[C@@]2(CO1)c1cc(Oc3ccc(Cl)cn3)ccc1Oc1c(F)cc(N3CCOCC3)cc12 [Example 1061, (4S)-7′-((5-chloro-2-pyridinyl)oxy)-4′-fluoro-2′-(4-morpholinyl)spiro[1,3-oxazole-4,9′-xanthen]-2-amine]	538 nM	57.4 nM
NC1=N[C@@]2(CO1)c1cc(Oc3cc(Cl)ccn3)ccc1Oc1c(F)cc(N3CCOCC3)cc12 [Example 1062, (4S)-7′-((4-chloro-2-pyridinyl)oxy)-4′-fluoro-2′-(4-morpholinyl)spiro[1,3-oxazole-4,9′-xanthen]-2-amine]	374 nM	22.3 nM
Cc1cccc(Oc2ccc3c(c2)[C@@]2(COC(N)=N2)c2cc(C4=CCOCC4)cc(F)c2O3)n1 [Example 1063, (4S)-2′-(3,6-dihydro-2H-pyran-4-yl)-4′-fluoro-7′-((6-methyl-2-pyridinyl)oxy)spiro[1,3-oxazole-4,9′-xanthen]-2-amine]	751 nM	33.7 nM
Cc1ccc(Oc2ccc3c(c2)[C@@]2(COC(N)=N2)c2cc(C4=CCOCC4)cc(F)c2O3)nc1 [Example 1064, (4S)-2′-(3,6-dihydro-2H-pyran-4-yl)-4′-fluoro-7′-((5-methyl-2-pyridinyl)oxy)spiro[1,3-oxazole-4,9′-xanthen]-2-amine]	442 nM	21.1 nM
Cc1ccnc(Oc2ccc3c(c2)[C@@]2(COC(N)=N2)c2cc(C4=CCOCC4)cc(F)c2O3)c1 [Example 1065, (4S)-2′-(3,6-dihydro-2H-pyran-4-yl)-4′-fluoro-7′-((4-methyl-2-pyridinyl)oxy)spiro[1,3-oxazole-4,9′-xanthen]-2-amine]	1480 nM	37.7 nM
NC1=N[C@@]2(CO1)c1cc(Oc3ccc(Cl)cn3)ccc1Oc1c(F)cc(C3=CCOCC3)cc12 [Example 1066, (4S)-7′-((5-chloro-2-pyridinyl)oxy)-2′-(3,6-dihydro-2H-pyran-4-yl)-4′-fluorospiro[1,3-oxazole-4,9′-xanthen]-2-amine]	1970 nM	52.6 nM
COc1cc(F)c2c(c1)[C@]1(COC(N)=N1)c1cc(-c3cncc(C(C)(F)F)c3)ccc1O2 [Example 1070, (4S)-7′-(5-(1,1-difluoroethyl)-3-pyridinyl)-4′-fluoro-2′-methoxyspiro[1,3-oxazole-4,9′-xanthen]-2-amine]	367 nM	345 nM
COc1cc(F)c2c(c1)[C@]1(COC(N)=N1)c1cc(-c3cncc(CC#N)c3)ccc1O2 [Example 1074, (5-((4S)-2-amino-5′-fluoro-7′-methoxyspiro[1,3-oxazole-4,9′-xanthen]-2′-yl)-3-pyridinyl)acetonitrile]	324 nM	131 nM

These reach a lower IC50 [1]. Values come first.

IC50 [1]	IC50 [2]	SMILES
209 nM	21.2 nM	NC1=N[C@]2(CO1)c1cc(C3=CCOCC3)cc(F)c1Oc1ccc(-c3cccnc3)c(F)c12 [Example 1046, (4R)-7′-(3,6-dihydro-2H-pyran-4-yl)-1′,5′-difluoro-2′-(3-pyridinyl)spiro[1,3-oxazole-4,9′-xanthen]-2-amine]
194 nM	61.4 nM	COc1cc(F)c2c(c1)[C@]1(COC(N)=N1)c1cc(-c3cncc(C(F)(F)F)c3)ccc1O2 [Example 1073, (4S)-4′-fluoro-2′-methoxy-7′-(5-(trifluoromethyl)-3-pyridinyl)spiro[1,3-oxazole-4,9′-xanthen]-2-amine]
95 nM	4.6 nM	NC1=N[C@]2(CO1)c1cc(C3=CCOCC3)cc(F)c1Oc1ccc(-c3cccnc3F)c(F)c12 [Example 1047, (4R)-7′-(3,6-dihydro-2H-pyran-4-yl)-1′,5′-difluoro-2′-(2-fluoro-3-pyridinyl)spiro[1,3-oxazole-4,9′-xanthen]-2-amine]
85 nM	15.6 nM	NC1=N[C@]2(CO1)c1cc(C3=CCCOC3)cc(F)c1Oc1ccc(-c3cncnc3)c(F)c12 [Example 1049, (4R)-7′-(5,6-dihydro-2H-pyran-3-yl)-1′,5′-difluoro-2′-(5-pyrimidinyl)spiro[1,3-oxazole-4,9′-xanthen]-2-amine]
79 nM	10.3 nM	NC1=N[C@]2(CO1)c1cc(N3CC[C@@H](F)C3)cc(F)c1Oc1ccc(-c3cccnc3F)c(F)c12 [Example 1053, (4R)-1′,5′-difluoro-2′-(2-fluoro-3-pyridinyl)-7′-((3R)-3-fluoro-1-pyrrolidinyl)spiro[1,3-oxazole-4,9′-xanthen]-2-amine]
67 nM	38.3 nM	NC1=N[C@]2(CO1)c1cc(N3CC[C@@H](F)C3)cc(F)c1Oc1ccc(-c3cncnc3)c(F)c12 [Example 1052, (4R)-1′,5′-difluoro-7′-((3R)-3-fluoro-1-pyrrolidinyl)-2′-(5-pyrimidinyl)spiro[1,3-oxazole-4,9′-xanthen]-2-amine]
62 nM	0.6 nM	NC1=N[C@@]2(CO1)c1cc(-c3cccnc3F)ccc1Oc1c(F)cc(N3CC4CC4C3)cc12 (stereo partly drawn) [Example 1054, (4S)-2′-(3-azabicyclo[3.1.0]hex-3-yl)-4′-fluoro-7′-(2-fluoro-3-pyridinyl)spiro[1,3-oxazole-4,9′-xanthen]-2-amine]
62 nM	2.3 nM	NC1=N[C@@]2(CS1)c1cc(-c3cccnc3F)ccc1Oc1c(F)cc(-c3ccncc3)cc12 [Example 1068, (4S)-4′-fluoro-7′-(2-fluoro-3-pyridinyl)-2′-(4-pyridinyl)spiro[1,3-thiazole-4,9′-xanthen]-2-amine]
44 nM	0.3 nM	NC1=N[C@@]2(CS1)c1cc(-c3cccnc3F)ccc1Oc1c(F)cc(-c3ccnc(F)c3)cc12 [Example 1071, (4S)-4′-fluoro-7′-(2-fluoro-3-pyridinyl)-2′-(2-fluoro-4-pyridinyl)spiro[1,3-thiazole-4,9′-xanthen]-2-amine]
36 nM	3.9 nM	NC1=N[C@]2(CO1)c1cc(C3=CCCOC3)cc(F)c1Oc1ccc(-c3cccnc3F)c(F)c12 [Example 1048, (4R)-7′-(5,6-dihydro-2H-pyran-3-yl)-1′,5′-difluoro-2′-(2-fluoro-3-pyridinyl)spiro[1,3-oxazole-4,9′-xanthen]-2-amine]
29 nM	3.3 nM	Cc1cc(-c2cc(F)c3c(c2)[C@]2(CSC(N)=N2)c2cc(-c4cccnc4F)ccc2O3)ccn1 [Example 1072, (4S)-4′-fluoro-7′-(2-fluoro-3-pyridinyl)-2′-(2-methyl-4-pyridinyl)spiro[1,3-thiazole-4,9′-xanthen]-2-amine]
18 nM	0.5 nM	NC1=N[C@@]2(CO1)c1cc(-c3cnccc3F)ccc1Oc1c(F)cc(C3=CCOCC3)cc12 [Example 1044, (4S)-2′-(3,6-dihydro-2H-pyran-4-yl)-4′-fluoro-7′-(4-fluoro-3-pyridinyl)spiro[1,3-oxazole-4,9′-xanthen]-2-amine]
17 nM	3 nM	NC1=N[C@@]2(CO1)c1cc(-c3cnccc3F)ccc1Oc1c(F)cc(C3CCOCC3)cc12 [Example 1056, (4S)-4′-fluoro-7′-(4-fluoro-3-pyridinyl)-2′-(tetrahydro-2H-pyran-4-yl)spiro[1,3-oxazole-4,9′-xanthen]-2-amine]
15 nM	1.5 nM	NC1=N[C@@]2(CS1)c1cc(-c3cccnc3F)ccc1Oc1c(F)cc(N3CC[C@@H](F)C3)cc12 [Example 1075, (4S)-4′-fluoro-7′-(2-fluoro-3-pyridinyl)-2′-((3R)-3-fluoro-1-pyrrolidinyl)spiro[1,3-thiazole-4,9′-xanthen]-2-amine]
12 nM	0.6 nM	NC1=N[C@@]2(CO1)c1cc(-c3cnccc3F)ccc1Oc1c(F)cc(C3=CCCOC3)cc12 [Example 1045, (4S)-2′-(5,6-dihydro-2H-pyran-3-yl)-4′-fluoro-7′-(4-fluoro-3-pyridinyl)spiro[1,3-oxazole-4,9′-xanthen]-2-amine]
10 nM	0.6 nM	NC1=N[C@@]2(CS1)c1cc(-c3cccnc3F)ccc1Oc1c(F)cc(N3CCOCC3)cc12 [Example 1069, (4S)-4′-fluoro-7′-(2-fluoro-3-pyridinyl)-2′-(4-morpholinyl)spiro[1,3-thiazole-4,9′-xanthen]-2-amine]
5 nM	0.4 nM	NC1=N[C@@]2(CS1)c1cc(-c3cccnc3F)ccc1Oc1c(F)cc(N3CC4CC3CO4)cc12 (stereo partly drawn) [Example 1078, (4S)-4′-fluoro-7′-(2-fluoro-3-pyridinyl)-2′-(2-oxa-5-azabicyclo[2.2.1]hept-5-yl)spiro[1,3-thiazole-4,9′-xanthen]-2-amine]

— patent US8883782B2, “Spiro-tetracyclic ring compounds as beta-secretase modulators and methods of use” (Amgen Inc., priority 2010, dated 2014)
